Test results published in US12286418B2, “Compounds and methods for treating or preventing bacterial infections” (priority 2019, dated 2025).
Values joined by “and” are separate entries in the source; they are usually repeats but may differ in a detail not shown here. Equal values may be shown once. “Also recorded” adds a separate entry of the source.

Key:
OXA-48 [1] = target: T1, OXA-48 (Klebsiella pneumoniae, UniProt Q6XEC0); experiment: OXA-48 inhibition assay using nitrocefin as reporter; format: biochemical; parameters: His-tag (N, cleaved yes); made in house; host or cells: E. coli BL21(DE3), pET28a; details: for potency/activity against OXA-48 in words: purified OXA-48, compared with CDD-97 where a derivative
T1 sequence (Q6XEC0 23-265, looked up): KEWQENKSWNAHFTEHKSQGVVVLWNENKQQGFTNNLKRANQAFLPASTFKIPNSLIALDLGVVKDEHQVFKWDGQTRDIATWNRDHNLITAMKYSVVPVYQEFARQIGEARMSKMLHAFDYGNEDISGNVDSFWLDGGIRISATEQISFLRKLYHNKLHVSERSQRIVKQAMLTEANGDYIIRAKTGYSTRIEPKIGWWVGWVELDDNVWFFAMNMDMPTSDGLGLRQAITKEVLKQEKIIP
Experimental: Nitrocefin, a chromogenic β-lactam substrate, was used as a reporter in all inhibition assays with the various OXA enzymes and various compounds. Nitrocefin is not stable in aqueous solution long-term. For these assays, nitrocefin stocks were prepared in DMSO, stored at −20° C. and used within 2 weeks of dissolving. To avoid freeze-thawing, fresh stocks were always used. The Km of nitrocefin was determined prior to inhibition assays by performing steady state kinetics. Assays were performed using a DU800 spectrophotometer at room temperature in 50 mM HEPES pH 7.5, 15 mM NaHCO3, and 0.02% tween 20 buffer. Hydrolyzed nitrocefin was detected at 482 nm. For a single experiment, a series of at least 5 nitrocefin concentrations were tested against the given enzyme in duplicate and the initial velocities were measured and fit to the Michaelis-Menten equation. Experiments were repeated twice, and error reported is the standard error of the mean.
Compounds were tested for inhibition of a given OXA enzyme from hydrolyzing nitrocefin using a Tecan plate reader. […] A control with no compound was included in each run. For each compound concentration, the velocity of nitrocefin hydrolysis was determined at 482 nm and fit to the Morrison equation. […] The average Ki of separate experiments, each of which consisted of duplicate runs, is reported and error was quantified as the standard deviation.
The activity of these derivatives was assessed using inhibition assays with purified OXA-48. Compounds were tested for the ability to inhibit OXA-48 from hydrolyzing nitrocefin, a chromogenic β-lactam substrate routinely used in β-lactamase inhibition assays. Nitrocefin contains a conjugated ring system that is readily hydrolyzed and produces a visible color shift from yellow to red upon hydrolysis (O'Callaghan, et al., 1972, Antimicrob. Agents Chemother. 1:283-288). The rate of nitrocefin hydrolysis in the presence of a constant amount of OXA-48 and increasing concentrations of a given compound of interest was monitored at 482 nm. These rates were plotted against compound concentration to determine the inhibition constant (Ki) against OXA-48. […] SPR was performed using 6×-His-OXA-48 enzyme that was amine-coupled on a Ni-NTA Chip. Meropenem, which covalently binds and inhibits OXA-48, was used as a positive control.

OXA-48 [2] = target: T1, OXA-48; experiment: Example 8 inhibition assay with nitrocefin (aromatic acids): OXA-48; format: biochemical; parameters: His-tag (N, cleaved yes); made in house; host or cells: E. coli BL21(DE3), pET28a
Experimental: (§1) For each of the OXA enzymes, the nitrocefin steady states were determined so nitrocefin could be used as a reporter in the inhibition assays. Nitrocefin (MilliporeSigma, Burlington, MA) was kept at −20° C. upon purchase and thawed at room temperature and diluted in DMSO for usage. DMSO stocks were aliquoted and kept at −20° C. for only up to 2 weeks after dissolving. To determine the steady state kinetic parameters for nitrocefin hydrolysis, reactions were monitored on a DU-800 spectrophotometer (Beckman Coulter, Brea, CA) at 25° C. Enzyme and substrate samples were diluted using 50 mM HEPES, pH 7.5, 15 mM NaHCO3, and 0.02% Tween-20. Hydrolyzed nitrocefin was tracked at 482 nm. For a single experiment, a series of at least 5 nitrocefin concentrations was tested against the given enzyme. Each substrate concentration was tested in duplicate and initial velocities were averaged (for a given concentration) and fit the Michaelis-Menten equation. The experiment was repeated for rigor. The Km values determined for each enzyme was used to determine the amount of nitrocefin to use in the inhibition assays.
The inhibition activity for compounds were assessed using inhibition assays with nitrocefin as the reporter. A constant concentration of nitrocefin and the given enzyme was used with increasing concentrations of the compound in question. […] The enzymes OXA-24, OXA-48 and OXA-58 were used in their corresponding inhibition experiments at a constant concentration of 0.2 nM, 0.2 nM and 0.1 nM respectively. Compounds were tested at up to 500-4000 μM depending on solubility and absorbance output. The initial velocity of nitrocefin hydrolysis was monitored using a Tecan M200 Infinite Pro plate reader (Tecan, Mannedorf, Switzerland). The velocities at various compound concentrations were fit to the Morrison Tight Binding equation to determine the Ki value for the given fragment with the given OXA enzyme. Ligand efficiency (LE) was calculated using a previously reported equation: LE=1.37 (pKi)/(# non-Hydrogen atoms). […]

OXA-24 = target: T2, OXA-24 (Acinetobacter baumannii, UniProt Q8RLA6); experiment: Example 8 inhibition assay with nitrocefin (aromatic acids): OXA-24; format: biochemical
T2 construct: His-tag (N, cleaved yes); made in house; host or cells: E. coli BL21 (DE3), pET28a
T2 sequence (Q8RLA6 entry or part of it): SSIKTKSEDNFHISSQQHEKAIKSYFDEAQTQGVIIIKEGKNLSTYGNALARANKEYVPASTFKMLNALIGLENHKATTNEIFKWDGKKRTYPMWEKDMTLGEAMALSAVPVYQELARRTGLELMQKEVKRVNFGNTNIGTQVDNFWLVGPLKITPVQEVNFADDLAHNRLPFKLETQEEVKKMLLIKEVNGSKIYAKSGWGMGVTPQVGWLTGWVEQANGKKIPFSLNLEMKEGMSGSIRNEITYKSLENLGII
Experimental: as §1, with “Each substrate concentration was tested in duplicate and initial velocities were averaged (for a given concentration) and fit the Michaelis-Menten equation. The experiment was repeated for rigor.” left out
(§2) The inhibition activity for compounds were assessed using inhibition assays with nitrocefin as the reporter. […] Compounds were tested at up to 500-4000 μM depending on solubility and absorbance output. The initial velocity of nitrocefin hydrolysis was monitored using a Tecan M200 Infinite Pro plate reader (Tecan, Mannedorf, Switzerland). […] Ligand efficiency (LE) was calculated using a previously reported equation: LE=1.37 (pKi)/(# non-Hydrogen atoms). […]

OXA-58 = target: T3, OXA-58 (Acinetobacter baumannii, UniProt Q2TR58); experiment: biochemical
T3 construct: His-tag (N, cleaved yes); made in house; host or cells: E. coli BL21 (DE3), pET28a
T3 sequence (Q2TR58 19-280): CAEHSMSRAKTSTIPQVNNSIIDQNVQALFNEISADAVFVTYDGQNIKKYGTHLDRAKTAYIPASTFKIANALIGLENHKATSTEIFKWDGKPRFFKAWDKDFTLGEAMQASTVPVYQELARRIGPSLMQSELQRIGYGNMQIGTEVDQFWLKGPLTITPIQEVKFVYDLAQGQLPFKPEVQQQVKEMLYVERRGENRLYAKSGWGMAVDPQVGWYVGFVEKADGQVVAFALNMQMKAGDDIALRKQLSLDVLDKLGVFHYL
Experimental: as §1, with “Each substrate concentration was tested in duplicate and initial velocities were averaged (for a given concentration) and fit the Michaelis-Menten equation. The experiment was repeated for rigor.” left out
as §2

OXA-48 [3] = target: T1, OXA-48; experiment: Surface plasmon resonance binding to immobilized 6x-His-OXA-48; parameters: His-tag (N, cleaved yes); made in house; host or cells: E. coli BL21(DE3), pET28a; details: SPR, immobilized His-OXA-48, positive control
Experimental: 6×-His-OXA-48 was capture/amine-coupled on a Ni-NTA Chip at a density of ˜5000 RU. Running buffer was 10 mM HEPES pH 7.4, 150 NaCl, 50 mM NaHCO3, 0.005% Tween-20, 2% DMSO. Concentration gradients of each compound were created from 0-15 μM using OneStep Injections in at least triplicates for meropenem and CDD-97.
Synthon-derivatives were created, without DNA tags, based on high OXA-48 enrichment and minimal NTC enrichment. The activity of these derivatives was assessed using inhibition assays with purified OXA-48. Compounds were tested for the ability to inhibit OXA-48 from hydrolyzing nitrocefin, a chromogenic β-lactam substrate routinely used in β-lactamase inhibition assays. Nitrocefin contains a conjugated ring system that is readily hydrolyzed and produces a visible color shift from yellow to red upon hydrolysis (O'Callaghan, et al., 1972, Antimicrob. Agents Chemother. 1:283-288). The rate of nitrocefin hydrolysis in the presence of a constant amount of OXA-48 and increasing concentrations of a given compound of interest was monitored at 482 nm. These rates were plotted against compound concentration to determine the inhibition constant (Ki) against OXA-48. Compounds with promising activity were also assessed for binding using surface plasmon resonance (SPR). SPR was performed using 6×-His-OXA-48 enzyme that was amine-coupled on a Ni-NTA Chip. Meropenem, which covalently binds and inhibits OXA-48, was used as a positive control.

OXA-48 [4] = target: T1, OXA-48; details: non-β-lactam inhibitors; cited from earlier work
[5] = purified OXA-48, nitrocefin hydrolysis, Morrison fit

For `CCOc1ccccc1N1CCN(c2nc(N)nc(N3CCC(C(=O)O)CC3)n2)CC1` [CDD-616, 1-(4-amino-6-(4-(2-ethoxyphenyl)piperazin-1-yl)-1,3,5-triazin-2-yl)piperidine-4-carboxylic acid], the “potency/activity against OXA-48 in words” value (OXA-48 [1]) was “does not have a large effect on potency; also recorded: retain potency; also recorded: did not affect potency” and the Ki (OXA-48 [1]; [5]) was 0.52 ± 0.01 µM.

With `CCOc1ccccc1N1CCN(c2ncnc(N3CCC(C(=O)O)C(N)C3)n2)CC1` (centres unmarked) [CDD-825] the Ki (OXA-48 [1]; [5]) was 17 µM and 16.9 µM and the “fold reduction in potency (OXA-48 Ki) compared to CDD-97” value (OXA-48 [1]; relative to CDD-97) was “approximately 30 fold”.

In the case of `CCOc1ccccc1N1CCN(c2ncnc(N3CCC(S(=O)(=O)O)CC3)n2)CC1` [CDD-862, 1-(4-(4-(2-ethoxyphenyl)piperazin-1-yl)-1,3,5-triazin-2-yl)piperidine-4-sulfonic acid], the Ki (OXA-48 [1]; purified OXA-48, nitrocefin) is reported as 0.26 µM and the Ki (OXA-48 [1]; [5]) is reported as 0.27 ± 0.02 µM.

For `CCOc1ccccc1N1CCN(c2nc(NCCCCN)nc(N3CCC(C(=O)O)CC3)n2)CC1` [CDD-863], the “potency/activity against OXA-48 in words” value (OXA-48 [1]) was “does not have a large effect on potency” and the Ki (OXA-48 [1]; [5]) was 0.45 µM.

Work on `CCOc1ccccc1N1CCN(c2nc(NCCN)nc(N3CCC(C(=O)O)CC3)n2)CC1` [CDD-864, 1-(4-((2-aminoethyl)amino)-6-(4-(2-ethoxyphenyl)piperazin-1-yl)-1,3,5-triazin-2-yl)piperidine-4-carboxylic acid] yielded a Ki (OXA-48 [1]; [5]) of 0.6 µM.

In the case of `CCOc1ccccc1CCCNc1ncnc(N2CCC(C(=O)O)CC2)n1` [CDD-899], the Ki (OXA-48 [1]; [5]) is reported as 15 µM.

For `O=C(O)c1ccccc1O` [Compound 1.1], the “inhibition activity against OXA-48 in words” value (OXA-48 [2]) was “low millimolar activity”, the “inhibition activity against OXA-24 in words” value (OXA-24) was “low millimolar activity” and the Ki (OXA-58) was 379 ± 44 µM.

With `O=C(O)c1ccc(-c2ccc(C(=O)O)cc2)cc1` [Compound 2.1] the “ligand efficiency (LE) for OXA-48 inhibition” value (OXA-48 [2]; LE=1.37 (pKi)/(# non-Hydrogen atoms)) was 0.36 and the Ki (OXA-48 [2]; OXA-48 0.2 nM, 25 μM nitrocefin) was 17.2 ± 1 µM.

Work on `C[C@@H](O)[C@H]1C(=O)N2C(C(=O)O)=C(S[C@@H]3CN[C@H](C(=O)N(C)C)C3)[C@H](C)[C@H]12` [Meropenem, reference compound] yielded a Kd (OXA-48 [3]) of 0.4235 ± 0.0002 µM.

In the case of `CCOc1ccccc1N1CCN(c2nc(NCCN)nc(N3CCC(C(=O)O)CC3)n2)CC1` [drawing 44], the Ki (OXA-48 [1]; [5]) is reported as 0.84 ± 0.03 µM.

In the case of `CCOc1ccccc1N1CCN(c2ncnc(N3CCC(S(=O)(=O)O)CC3)n2)CC1` [drawing 46], the Ki (OXA-48 [1]; [5]) is reported as 0.26 ± 0.04 µM.

In the case of `O=C(NC1CCNCC1)[C@@H]1CC[C@@H]2CN1C(=O)N2OS(=O)(=O)O` [relebactam], the “efficacy against OXA-48 in words” value (OXA-48 [4]) is given as “ineffective against OXA-48”.

For `O=C(O)C[C@@H]1CC[C@H](NC(=O)Cc2cccs2)B(O)O1` [vaborbactam], the “efficacy against OXA-48 in words” value (OXA-48 [4]) is listed as “ineffective against OXA-48”.
